According to patent US20260015325A1, “ALKOXY HETEROARYL- CARBOXAMIDE OR THIOAMIDE COMPOUNDS” (SYNGENTA CROP PROTECTION AG, priority 2022, published 2026):

Experiments:
Type in all cases: in vivo
[1] = tested on: Myzus persicae (Green Peach Aphid); assay: Myzus persicae (Green Peach Aphid): intrinsic activity, sucrose solution; conditions: 120 h, test rate of 12 ppm, intrinsic, mixed with sucrose solution under Parafilm, 5 days after infestation, read-out: mortality
How it was run: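 Compounds from 10′000 ppm DMSO stocks mixed with sucrose solution in wells sealed with Parafilm; aphid-infested pea seedlings placed on the Parafilm and the assembly inverted so aphids feed through the membrane. Mortality assessed 5 days after infestation.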

[2] = tested on: Myzus persicae (Green Peach Aphid); assay: Myzus persicae (Green Peach Aphid): feeding/contact activity, sunflower leaf discs; conditions: foliar, 144 h, application rate of 200 ppm, mixed ages on sprayed sunflower leaf discs, 6 days after infestation, read-out: mortality
Procedure: Example B6: Myzus persicae (Green Peach Aphid): Feeding/Contact Activity
(§1) Sunflower leaf discs were placed onto agar in a 24-well microtiter plate and sprayed with aqueous test solutions prepared from 10′000 ppm DMSO stock solutions. After drying, the leaf discs were infested with an aphid population of mixed ages. The samples were assessed for mortality 6 days after infestation.

Spodoptera littoralis = Spodoptera littoralis (Egyptian Cotton Leaf Worm), cotton leaf discs; conditions: foliar, 72 h, application rate of 200 ppm, L1 larvae on sprayed cotton leaf discs, 3 days after infestation, read-out: control (at least one of mortality, anti-feedant effect, growth inhibition)
Procedure: Example B10: Spodoptera littoralis (Eaytian Cotton Leaf Worm)
Cotton leaf discs were placed onto agar in 24-well microtiter plates and sprayed with aqueous test solutions prepared from 10′000 ppm DMSO stock solutions. After drying the leaf discs were infested with five L1 larvae. The samples were assessed for mortality, anti-feeding effect, and growth inhibition in comparison to untreated samples 3 days after infestation. Control of Spodoptera littoralis by a test sample is given when at least one of the categories mortality, anti-feedant effect, and growth inhibition is higher than the untreated sample.

[3] = tested on: Bemisia tabaci (Cotton White Fly); assay: Bemisia tabaci (Cotton White Fly): feeding/contact activity, cotton leaf discs; conditions: foliar, 144 h, application rate of 200 ppm, adult white flies on sprayed cotton leaf discs, 6 days after incubation, read-out: mortality
Procedure: Example B1: Bemisia tabaci (Cotton White Fly): Feeding/Contact Activity
Cotton leaf discs were placed on agar in 24-well microtiter plates and sprayed with aqueous test solutions prepared from 10′000 ppm DMSO stock solutions. After drying the leaf discs were infested with adult white flies. The samples were checked for mortality 6 days after incubation.

[4] = tested on: Diabrotica balteata (Corn Root Worm); assay: whole plant or invertebrate; conditions: 96 h, application rate of 200 ppm, L2 larvae on sprayed maize sprouts, 4 days after infestation, read-out: effect in at least one of the two categories (mortality or growth inhibition)
Procedure: Example B3: Diabrotica balteata (Corn Root Worm)
Maize sprouts placed onto an agar layer in 24-well microtiter plates were treated with aqueous test solutions prepared from 10′000 ppm DMSO stock solutions by spraying. After drying, the plates were infested with L2 larvae (6 to 10 per well). The samples were assessed for mortality and growth inhibition in comparison to untreated samples 4 days after infestation.

[5] = tested on: Chilo suppressalis (Striped Rice Stemborer); assay: Chilo suppressalis (Striped Rice Stemborer), artificial diet; conditions: 144 h, application rate of 200 ppm, L2 larvae on treated artificial diet, 6 days after infestation, read-out: control (at least one of mortality, anti-feedant effect, growth inhibition)
Procedure: Example B2: Chilo suppressalis (Striped Rice Stemborer)
24-well microtiter plates with artificial diet were treated with aqueous test solutions prepared from 10′000 ppm DMSO stock solutions by pipetting. After drying, the plates were infested with L2 larvae (6-8 per well). The samples were assessed for mortality, anti-feeding effect, and growth inhibition in comparison to untreated samples 6 days after infestation. Control of Chilo suppressalis by a test sample is given when at least one of the categories mortality, anti-feedant effect, and growth inhibition is higher than the untreated sample.

[6] = tested on: Myzus persicae (Green Peach Aphid); assay: Myzus persicae (Green Peach Aphid): systemic activity, pea seedlings; conditions: 144 h, test rate of 24 ppm, systemic, roots of infested pea seedlings in test solution, 6 days, read-out: mortality
Procedure: Example B7: Myzus persicae (Green Peach Aphid). Systemic Activity
Roots of pea seedlings infested with an aphid population of mixed ages were placed directly into aqueous test solutions prepared from 10′000 DMSO stock solutions. The samples were assessed for mortality 6 days after placing seedlings into test solutions.

[7] = tested on: Frankliniella occidentalis (Western Flower Thrips); assay: Frankliniella occidentalis (Western Flower Thrips): feeding/contact activity, sunflower leaf discs; conditions: foliar, 168 h, application rate of 200 ppm, mixed ages on sprayed sunflower leaf discs, 7 days after infestation
Procedure: Example B5: Frankliniella occidentalis (Western Flower Thrips): Feeding/Contact Activity
Sunflower leaf discs were placed on agar in 24-well microtiter plates and sprayed with aqueous test solutions prepared from […] stock solutions. After drying the leaf discs were infested with a Frankliniella population of mixed ages. The samples were assessed for mortality 7 days after infestation.

[8] = tested on: Euschistus heros (Neotropical Brown Stink Bug); assay: Euschistus heros (Neotropical Brown Stink Bug), soybean leaves; conditions: 120 h, application rate of 200 ppm, N2 nymphs on sprayed soybean leaves, 5 days after infestation, read-out: effect in at least one of the two categories (mortality or growth inhibition)
Procedure: Example B4: Euschistus heros (Neotropical Brown Stink Bug)
Soybean leaves on agar in 24-well microtiter plates were sprayed with aqueous test solutions prepared from 10′000 ppm DMSO stock solutions. After drying the leaves were infested with N2 nymphs. The samples were assessed for mortality and growth inhibition in comparison to untreated samples 5 days after infestation.

[9] = tested on: Myzus persicae (Green Peach Aphid); assay: Myzus persicae (Green Peach Aphid): feeding/contact activity, eggplant leaf discs; conditions: foliar, 144 h, application rate of 200 ppm, mixed ages on sprayed eggplant leaf discs, 6 days after infestation, read-out: growth inhibition
Procedure: as §1, with “Example B12: Myzus persicae (Green Peach Aphid) Feeding/Contact Activity Eggplant” for “Sunflower”

C[C@@H](COc1cnc(Cl)c(C(=O)NC2(C#N)CC2)c1)NS(=O)(=O)C(F)(F)F [Compound P-2, 2-chloro-N-(1-cyanocyclopropyl)-5-[(2S)-2-(trifluoromethylsulfonylamino)propoxy]pyridine-3-carboxamide]
≥ 80%: mortality at 12 ppm [1] | mortality at 200 ppm [2] | percent control (mortality, anti-feedant effect or growth inhibition) at 200 ppm (Spodoptera littoralis) | mortality at 200 ppm [3] | percent effect (mortality or growth inhibition) at 200 ppm [4] | percent control (mortality, anti-feedant effect or growth inhibition) at 200 ppm [5] | mortality at 24 ppm [6] | mortality at 200 ppm [7] | percent effect (mortality or growth inhibition) at 200 ppm [8]

C[C@@H](COc1cc(C(=O)NC2(C#N)CC2)c(Cl)nn1)NS(=O)(=O)C(F)(F)F [Compound P89, 3-chloro-N-(1-cyanocyclopropyl)-6-[(2S)-2-(trifluoromethylsulfonylamino)propoxy]pyridazine-4-carboxamide]
≥ 80%: inhibition at 200 ppm [9]
